Source: patent US9757399B2, “Butyrylcholinesterase inhibitors” (priority 2006, dated 2017)

How the values were obtained:
[1] = biological target: T1, butyrylcholinesterase (Equus caballus, UniProt P81908); experiment: biochemical; type: biochemical, horse; conditions: for Change in Absorbance at 412 nm/Minute (Normalized): 10^−7M, normalized to 2-chlorophenyl-di-n-butyl phosphate set as 1.0; for Change in Absorbance at 412 nm/Minute (Not Normalized): compound final concentration 10^−7M; for inhibition at 100 µM: read-out: % inhibition of BuChase
T1 construct: butyrylcholinesterase (from horse serum); purchased Sigma; host or cells: horse serum (natural source)
Protocol: (§1) Cholinesterase activity measurements were performed essentially according to the method of Ellman (Biochemical Pharmacology 7:88-90, 1961). The composition of the assay mixture was 0.1 M sodium phosphate, pH 7.5, 0.033 M DTNB, 0.001 M MgCl2, and 100 μg/mL of BSA containing appropriate amounts of substrate and inhibitor. Each assay was initiated by the addition of substrate and the activity quantified by measuring the formation of the thionitrobenzoate anion at 412 nm at 37° C. Methanol used to solubilize the dialkyl phenyl phosphates [1% (v/v) final concentration] had no inhibitory effect on either enzyme.
. The results were obtained by pre-incubating the enzyme with the compound (final concentration 10^−7M) for various periods of time and measuring the remaining enzyme activity. The results are shown as the change in absorbance at 412 nm/minute. In order to simplify the results from all the compounds, the enzyme activities were normalized to 2-chlorophenyl-di-n-butyl phosphate which was set as 1.0. Since two different preparations of enzyme were used, the normalization procedure would adjust for any differences in the amount of enzyme. […]. In other cases, the compound's inhibitory activity is not as strong and assay conditions were modified to increase the inhibitor concentration.
Table 4: Rates of inactivation of butyrylcholinesterase by exemplary compounds: Change in Absorbance at 412 nm/Minute. (ND=No Data)

[2] = biological target: T2, Acetylcholinesterase (from electric eel) (Electrophorus electricus, UniProt O42275); experiment: Acetylcholinesterase activity, Ellman assay after pre-incubation with inhibitor; type: biochemical; conditions: 100 μM compound, 60 minutes at 25° C.
T2 construct: Acetylcholinesterase (from electric eel); purchased Sigma; host or cells: electric eel (natural source)
Protocol: (§2) Acetylcholinesterase (from electric eel), butyrylcholinesterase (from horse serum), DTNB, butyrylthiocholine, acetylthiocholine, and BSA were purchased from Sigma. The dialkyl 2-chlorophenyl (and 4-chlorophenyl) phosphates were solubilized in reagent grade methanol.
as §1
(§3) Butyrylcholinesterase was pre-incubated at room temperature with inhibitor in the assay cocktail minus substrate for varying periods of time at 25° C. Substrate was then added and the activity measured as described above. The relative rates of enzyme inactivation were determined by plotting enzyme activity versus time of pre-incubation with inhibitor. Results were expressed as the rate constant for the rate of enzyme inactivation. In the case of AcChase, results were expressed as the % of activity remaining relative to the enzyme incubated only with solvents.
The first series of experiments determined the effect of the dialkyl 2-chlorophenyl (and 4-chlorophenyl) phosphates on both AcChase and BuChase. None of the compounds had any inhibitory effect on AcChase (See Table 1). In Table 1, AcChase was incubated with 100 μM of the indicated phenyl phosphate for 60 minutes at 25° C. and then assayed as described above. Results were expressed as the % activity relative to enzyme incubated with solvent ±SD (standard deviation).

[3] = biological target: T3, butyrylcholinesterase (from horse serum) (Equus caballus, UniProt P81908); experiment: Rates of inactivation of butyrylcholinesterase, Ellman assay; type: biochemical; conditions: for k, rate constant of inactivation of butyrylcholinesterase ± S.E.M: 100 nM inhibitor, 25° C.; for effect on BuChase activity under standard conditions: standard conditions (100 nM inhibitor)
T3 construct: butyrylcholinesterase (from horse serum); purchased Sigma; host or cells: horse serum (natural source)
Protocol: as §2, §1, §3
. […] In Table 2, BuChase was incubated for increasing periods of time at 25° C. with 100 nM inhibitor then assayed for activity as described above. Rate constants were calculated from a plot of enzyme activity vs. time of inhibitor exposure. […]. Slopes were calculated by linear regression analysis.

[4] = biological target: T3, butyrylcholinesterase (from horse serum); experiment: as above; type: biochemical; conditions: inhibitor at 10^−4M
[5] = biological target: T1, butyrylcholinesterase; experiment: Native gel electrophoresis activity stain, BuChase; type: biochemical, horse; conditions: pre-incubation with inhibitor
Protocol: (§4) Enzyme activity was also measured by native gel electrophoresis. For cholinesterase activity, proteins (10 μg of both acetylcholinesterase and butyrylcholinesterase) were fractionated on Novex precast 10% Tris glycine gels (Invitrogen). Enzyme activity was detected by first incubating the gels in a solution of 5 mM substrate then staining with a solution of copper sulfate/potassium ferricyanide.
(§5) Using native gel electrophoresis, both AcChase and BuChase activity was detected. Pre-incubation of AcChase with di-ethyl 2-chlorophenyl phosphate had no effect on AcChase activity (FIG. 1).

[6] = biological target: T4, acetylcholinesterase (Electrophorus electricus, UniProt O42275); experiment: Native gel electrophoresis activity stain, AcChase; type: biochemical, electric eel; conditions: pre-incubation with inhibitor
T4 construct: Acetylcholinesterase (from electric eel); purchased Sigma; host or cells: electric eel (natural source)
Protocol: as §4, §5

[7] = biological target: T1, butyrylcholinesterase; experiment: Phosphorylation of BuChase by 14C-labeled inhibitor, autoradiography; parameters: species or system horse; conditions: 14C-labeled compound, native gel
Protocol: The cholinesterases were pre-incubated with ^14C-di-ethyl-2-chlorophenyl phosphate and then fractionated by native gel electrophoresis as described above. The proteins were fixed in the gel with 10% acetic acid/30% methanol. The fixative was removed and replaced with 100 mL of EN^3HANCE. The gel was incubated for 60 minutes at room temperature with gentle agitation and then placed in 5% PEG and incubated for 30 minutes at room temperature with gentle agitation. The gel was then dried down on a piece of 3 MM filter paper, exposed to X-ray film at −80° C. for 2 weeks, and then developed.

T3 sequence (P81908 whole entry): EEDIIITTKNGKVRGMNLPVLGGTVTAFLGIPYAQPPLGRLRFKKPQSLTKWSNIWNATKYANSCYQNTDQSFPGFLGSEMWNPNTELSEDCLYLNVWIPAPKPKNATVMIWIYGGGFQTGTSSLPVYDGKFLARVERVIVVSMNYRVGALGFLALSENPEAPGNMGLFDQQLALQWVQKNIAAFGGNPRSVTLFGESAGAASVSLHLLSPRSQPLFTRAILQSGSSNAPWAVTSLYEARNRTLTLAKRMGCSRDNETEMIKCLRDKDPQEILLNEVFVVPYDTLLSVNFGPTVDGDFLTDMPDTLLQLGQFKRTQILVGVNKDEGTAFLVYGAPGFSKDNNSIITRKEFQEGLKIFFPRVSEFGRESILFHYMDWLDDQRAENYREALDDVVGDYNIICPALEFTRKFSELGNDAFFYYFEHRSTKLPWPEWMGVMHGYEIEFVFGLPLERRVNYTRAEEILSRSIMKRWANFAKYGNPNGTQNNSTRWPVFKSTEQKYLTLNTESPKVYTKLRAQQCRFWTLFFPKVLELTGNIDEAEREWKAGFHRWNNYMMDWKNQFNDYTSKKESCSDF
T1 sequence (P81908 whole entry): as above
T2 sequence (O42275 24-633): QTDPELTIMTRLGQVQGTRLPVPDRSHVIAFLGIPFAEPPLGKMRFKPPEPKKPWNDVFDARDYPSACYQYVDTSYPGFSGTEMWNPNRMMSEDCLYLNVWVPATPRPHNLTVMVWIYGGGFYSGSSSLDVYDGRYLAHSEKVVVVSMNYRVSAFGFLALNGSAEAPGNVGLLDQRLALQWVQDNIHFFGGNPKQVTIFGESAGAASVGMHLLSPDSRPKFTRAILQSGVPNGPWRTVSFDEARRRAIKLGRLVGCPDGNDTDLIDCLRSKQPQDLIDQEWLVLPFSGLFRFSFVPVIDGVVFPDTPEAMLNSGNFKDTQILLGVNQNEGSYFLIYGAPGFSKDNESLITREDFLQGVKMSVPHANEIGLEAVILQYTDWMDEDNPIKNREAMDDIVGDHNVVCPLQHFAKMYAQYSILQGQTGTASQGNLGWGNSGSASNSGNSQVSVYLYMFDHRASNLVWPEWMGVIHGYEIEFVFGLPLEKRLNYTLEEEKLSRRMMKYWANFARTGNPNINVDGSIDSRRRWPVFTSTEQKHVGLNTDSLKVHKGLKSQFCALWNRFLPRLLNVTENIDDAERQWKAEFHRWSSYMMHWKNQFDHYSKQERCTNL
T4 sequence (O42275 24-633): as above

CCCCOP(=O)(OCCCC)Oc1cccc(F)c1
Change in Absorbance at 412 nm/Minute (Normalized) [1]: 0.696
Change in Absorbance at 412 nm/Minute (Not Normalized) [1]: 0.468

CCCCOP(=O)(OCCCC)Oc1ccc(Br)cc1
Change in Absorbance at 412 nm/Minute (Normalized) [1]: 0.737
Change in Absorbance at 412 nm/Minute (Not Normalized) [1]: 0.495

CCCCOP(=O)(OCCCC)Oc1cccc([N+](=O)[O-])c1
% Inhibition of BuChase after 2 minutes ([1]; standard conditions (10^−7M), 2 minutes): 100%
% Inhibition of BuChase, immediate ([1]; standard conditions (10^−7M)): 83%

CC(C)COP(=O)(OCC(C)C)Oc1ccccc1Cl [Di-iso-butyl-, Di-i-butyl 2-Chlorophenyl phosphate]
% Activity ± SD (acetylcholinesterase activity relative to enzyme incubated with solvent) [2]: 96.18 ± 0.023%
k, rate constant of inactivation of butyrylcholinesterase ± S.E.M [3]: 60.83 ± 5.8 min^−1 × 10^−2

COP(=O)(OC)Oc1ccccc1Cl [Di-methyl-, 2-Chlorophenyl dimethyl phosphate]
% Inhibition of butyrylcholinesterase [4]: 48.9% Inhibition
% Activity ± SD (acetylcholinesterase activity relative to enzyme incubated with solvent) [2]: 101.9 ± 0.019%
effect on BuChase activity under standard conditions [3]: no effect

O=P(Oc1ccccc1)(Oc1ccccc1)Oc1ccccc1Cl
inhibition at 100 µM ([1]; compound at 10^−4 M): 29.4%
inhibitory under standard conditions ([1]; standard conditions (10^−7M)): Not inhibitory

CCOP(=O)(OCC)Oc1ccccc1Cl [Di-ethyl-, 2-Chlorophenyl diethyl phosphate]
effect on BuChase activity, native gel (FIG. 2A) [5]: nearly completely inhibited
% Activity ± SD (acetylcholinesterase activity relative to enzyme incubated with solvent) [2]: 96.77 ± 0.019%
effect on AcChase activity, native gel (FIG. 1) [6]: no effect
covalent modification of BuChase (FIG. 2B) [7]: covalently modified
k, rate constant of inactivation of butyrylcholinesterase ± S.E.M [3]: 6.64 ± 2.1 min^−1 × 10^−2

CCCCOP(=O)(OCCCC)Oc1ccc(Cl)cc1 [Di-n-butyl-(4Cl), Di-n-butyl 4-chlorophenyl phosphate]
% Activity ± SD (acetylcholinesterase activity relative to enzyme incubated with solvent) [2]: 97.61 ± 0.006%
k, rate constant of inactivation of butyrylcholinesterase ± S.E.M [3]: 13.01 ± 2.0 min^−1 × 10^−2

CCCCOP(=O)(OCCCC)Oc1cccc(Br)c1
Change in Absorbance at 412 nm/Minute (Normalized) [1]: 6.220
Change in Absorbance at 412 nm/Minute (Not Normalized) [1]: 4.18

CCCOP(=O)(OCCC)Oc1ccccc1Cl [Di-n-propyl-, 2-Chlorophenyl di-n-propyl phosphate]
% Activity ± SD (acetylcholinesterase activity relative to enzyme incubated with solvent) [2]: 97.38 ± 0.028%
k, rate constant of inactivation of butyrylcholinesterase ± S.E.M [3]: 20.21 ± 2.2 min^−1 × 10^−2

CCCCCOP(=O)(OCCCCC)Oc1ccccc1Cl [Di-n-pentyl-, 2-Chlorophenyl di-n-pentyl phosphate]
activity at 100 µM ([2]; read-out: % Activity ± SD (acetylcholinesterase activity relative to enzyme incubated with solvent)): 101.7 ± 0.03%
k, rate constant of inactivation of butyrylcholinesterase ± S.E.M [3]: 30.44 ± 3.3 min^−1 × 10^−2

CC(C)OP(=O)(Oc1ccccc1Cl)OC(C)C [Di-iso-propyl-, 2-Chlorophenyl di-i-propyl phosphate]
% Inhibition of butyrylcholinesterase [4]: 85.3% Inhibition
% Activity ± SD (acetylcholinesterase activity relative to enzyme incubated with solvent) [2]: 97.82 ± 0.045%
effect on BuChase activity under standard conditions [3]: no effect

CCCCOP(=O)(OCCCC)Oc1ccccc1F
Change in Absorbance at 412 nm/Minute (Normalized) [1]: 2.604
Change in Absorbance at 412 nm/Minute (Not Normalized) [1]: 1.75

CCCCOP(=O)(OCCCC)Oc1ccc(Cl)cc1 [drawing 55]
Change in Absorbance at 412 nm/Minute (Normalized) [1]: 0.338
Change in Absorbance at 412 nm/Minute (Not Normalized) [1]: 0.227

CCCCOP(=O)(Oc1ccc(Cl)cc1Cl)Oc1ccc(Cl)cc1Cl
inhibition at 100 µM ([1]; compound at 10^−4 M): 63.4%
inhibitory under standard conditions ([1]; standard conditions (10^−7M)): Not inhibitory

CCCCOP(=O)(OCCCC)Oc1ccccc1Br
Change in Absorbance at 412 nm/Minute (Normalized) [1]: 1.366
Change in Absorbance at 412 nm/Minute (Not Normalized) [1]: 0.918

CCCCCCNP(=O)(OCCCC)Oc1ccccc1Cl (stereo not shown)
Change in Absorbance at 412 nm/Minute (Normalized) [1]: 1.024
Change in Absorbance at 412 nm/Minute (Not Normalized) [1]: 0.688

CCCCOP(=S)(OCCCC)Oc1ccccc1Cl
% inhibition of BuChase ([1]; compound at 10^−4 M): 14.6%
inhibitory under standard conditions ([1]; standard conditions (10^−7M)): Not Inhibitory

CCCCOP(=O)(OCCCC)Oc1ccccc1C
type of inhibition [1]: Reversible inhibitor: Ki = 2.1 μM

CCCCOP(=O)(OCCCC)Oc1ccc(Cl)cc1Cl
% inhibition of BuChase after 1 minute ([1]; standard conditions (10^−7M), 1 minute): 92% inhibition after 1 minute under standard conditions

CCCCCCNP(=O)(Oc1ccccc1Cl)Oc1ccccc1Cl
inhibition at 100 µM ([1]; compound at 10^−4 M): 73.9%
inhibitory under standard conditions ([1]; standard conditions (10^−7M)): Not inhibitory

CCCCCCP(=O)(OCCCC)Oc1ccccc1Cl (stereo not shown)
Change in Absorbance at 412 nm/Minute (Normalized) [1]: 14.94
Change in Absorbance at 412 nm/Minute (Not Normalized) [1]: 10.04

CCCCP(=O)(Oc1ccccc1Cl)Oc1ccccc1Cl
Change in Absorbance at 412 nm/Minute (Normalized) [1]: 0.48
Change in Absorbance at 412 nm/Minute (Not Normalized) [1]: 0.32

CCCCOP(=O)(OCCCC)Oc1ccc([N+](=O)[O-])cc1
% Inhibition of BuChase, immediate ([1]; standard conditions (10^−7M)): 100% Inhibition (Immediate under standard conditions)

CCCCP(=O)(CCCC)Oc1ccccc1Cl
Change in Absorbance at 412 nm/Minute (Normalized) [1]: 1.018
Change in Absorbance at 412 nm/Minute (Not Normalized) [1]: 0.684
